The record followed here is US20170181999A1, “USE OF COMPOUNDS PRODUCED FROM ARRABIDAEA BRACHYPODA EXTRACTS AS ANTI-ULCEROGENIC AGENTS” (UNIVERSIDADE ESTADUAL PAULISTA "JULIO DE MESQUITA FILHO" - …, priority 2013, published 2017).

Molecules are shown by their SMILES. Marks after values point to notes of the source that are not given here.

Data set [1] relates to glutathione peroxidase (GPx). Put plainly: Glutathione peroxidase (GPx) activity on the gastric mucous, ulcer induced by ethanol. Type of data set: in vivo. As to conditions: oral administration, gastric mucous of rats.
Method: Rats Unib-WH were submitted to fasting for 24 hours with water ad libitum. On the day of the trial, they were divided into 7 groups: saline as negative control, lansoprazole as positive control and four groups with the A. brachypoda roots extracts at different concentrations (dosages of 10, 30, 100 and 300 mg·Kg-1) dissolved in saline at 10 mL·Kg-1 concentrations.
Data set [2] in a line: Sub-chronic toxicity evaluation (organ and body weight), acetic acid ulcer model. Type of data set: in vivo, rats. The conditions noted are these: oral. Here is the method: (§1) After 48 hours of the surgical procedure, the oral administration of the treatments was initiated (once daily for 7 and 14 days) with EAB (300 mg/kg), lansoprazole (30 mg/kg—positive control) and vehicle (saline solution 0.9%—negative control).
(§2) The animals were weighted and observed from the induction of the injury to the end of treatments. At the end of this period, the animals were sacrificed; their stomachs were removed and opened toward the great curvature to the measurement of the ulcerative injury area.
(§3) Tissue sections were also collected for preparing histological blades. The animals also had heart, lungs, liver, kidneys and testicles collected and weighted in order to verify possible signs of toxicity.

For data set [3], the system named is myeloperoxidase (MPO). The experiment in a line: MPO activity, ulcer induced by ethanol. The class given is in vivo. The conditions noted are these: rats.
Method: The myeloperoxidase activity was determined through the method disclosed by Krawisz et al. in 1984. The samples were homogenized in hexadecyl trimethyl ammonium bromide (HTAB) buffer at 0.5% (w/v) in saline phosphate buffer (50 mM, pH 6.0) with final dilution of 1:20 (w/v) until the obtainment of an uniform aspect. […]
The sample was centrifuged at 7000 G, during 10 minutes and the MPO activity was determined following the kinetics of the reaction faced to hydrogen peroxide. […]
(§4) The absorbance was determined at 450 nm and the enzyme activity was calculated by the interpolation of the standard curve, performed with MPO originated from human neutrophils.
(§5) One unity of MPO is defined as the necessary amount to degrade 1 mmol/minute of hydrogen peroxide at 25° C. The results were expressed as U/g of protein.
Data set [4] deals with ulcer induced by acetic acid. Put plainly: Healing of the ulcer induced by acetic acid, injury area. Type of data set: in vivo, rats. Here is the method:
The rats were anaesthetized with xilazine chloridrate and ketamine for performing a longitudinal incision right under the xiphoid apophysis.
The previous wall of the stomach was exposed and an area of the serous tissue was delimited with a plastic ring upon which was added 50 μL of acetic acid absolute with the aid of an automatic micropipette, the contact between the acid and the serous tissue being maintained during 60 seconds.
Following, the area was cleaned with saline solution and the animals had their abdominal cavities closed, being maintained in rest until complete recovery of the anesthesia and, then, they were placed at the vivarium.
as §1, §2

The test system of data set [5] is myeloperoxidase (MPO). Put plainly: MPO activity of the gastric mucous, ulcer induced by acetic acid. The class given is in vivo, rats. The conditions noted are these: oral, extract 300 mg/kg, lansoprazole 30 mg/kg.
Method: The myeloperoxidase activity was determined through the method disclosed by Krawisz et al. in 1984. The samples were homogenized in hexadecyl trimethyl ammonium bromide (HTAB) buffer at 0.5% (w/v) in saline phosphate buffer (50 mM, pH 6.0) with final dilution of 1:20 (w/v) until the obtainment of an uniform aspect.
The homogenate was submitted to the ultrasonic bath for 10 seconds, followed by a triple process for freezing and defrosting, which facilitates the rupture of the cell structures and, as a consequence, the release of the enzyme.
The sample was centrifuged at 7000 G, during 10 minutes and the MPO activity was determined following the kinetics of the reaction faced to hydrogen peroxide.
In an ELISA plate, 50 μL of the supernatant and 150 μL of the color reactive and hydrogen peroxide (0.066%) were placed in phosphate buffer (50 mM, pH 6.0).
as §4, §5
The test system of data set [6] is gastric acid secretion. Put plainly: Pylorus ligature and evaluation of the gastric juice parameters. The class given is in vivo, rats. The conditions noted are these: intra-duodenal administration; pylorus ligature, 4 hours. Here is the method: The rats were in fasting for 48 hours with water ad libitum. On the day of the trial, the animals were divided into four groups: saline, lansoprazole, cimetidine and treated with A. brachypoda extract.
The rats were anesthetized and underwent a longitudinal incision just below the xiphoid apophysis for the pylorus ligature.
The drug administration was carried out immediately after the ligature, intraduodenally. The incisions were sutured, and after four hours of surgery, the rats were sacrificed. The stomachs were carefully withdrawn and acid secretion was collected. After centrifugation, the volume and pH of the secretion of each animal was measured.

Data set [7] deals with glutathione reductase (GR). Put plainly: Glutathione reductase (GR) activity on the gastric mucous, ulcer induced by ethanol. The class given is in vivo. As to conditions: oral administration, gastric mucous of rats. Here is the method: For measuring the GR activity, the enzymatic reaction was prepared with 100 μL of the sample (after centrifugation and dilution of the supernatant in phosphate buffer pH=7.4 in a 1:10 ratio) and 150 μL of the mixture formed by EDTA (0.20 mM), oxidized glutathione (1 mM) and NADPH (0.1 mM). The absorbance was read at 365 nm, between 0 and 10 minutes, according to the technique developed by Carlberg & Mannervik, 1985.
Rats Unib-WH were submitted to fasting for 24 hours with water ad libitum. On the day of the trial, they were divided into […] groups: saline as negative control, lansoprazole as positive control and four groups with the A. brachypoda roots extracts at different concentrations (dosages of 10, 30, 100 and 300 mg·Kg-1) dissolved in saline at 10 mL·Kg-1 concentrations.
The animals received the predicted treatment for each group and one hour later, 1 mL of absolute ethanol was orally administered.
After one hour of ulcer induction, the rats were sacrificed by cervical dislocation and their stomachs were withdrawn for quantification of injuries.
The injury areas were calculated, the stomachs were homogenized, the cytosolic extracts were prepared and the membranes for conducting the biochemical assays.

Data set [8] deals with ulcer induced by acetic acid. The experiment in a line: Histological analysis of stomachs, ulcer induced by acetic acid. Type of data set: in vivo, rats. The conditions noted are these: treated for 14 days, compared to the saline group. Here is the method: as §3
The histological cuts and blades were prepared by fixing the material in Alfac (formalin, alcohol 80% and acetic acid) for 24 hours. The pieces were, then, dehydrated and included in an appropriate medium solid.
Subsequently, the middle blocks were cut ([…] thick) on a microtome, serially. The samples were submitted to hematoxylin-eosin (HE) coloration for general observation of the structure and cellularity in light microscopy.

Data set [9] has as its system GSH. Put plainly: Glutathione (GSH) levels on the gastric mucous, ulcer induced by ethanol. Type of data set: in vivo. The conditions noted are these: oral administration, gastric mucous of rats. Here is the method:
To proceed with the measurement of the total glutathione content, the method disclosed by Anderson in 1985 was used, which bases on the total oxidation of the reduced glutathione (GSH) present in a sample to its oxidized form (GSSG), through the incubation of the sample with dithiobis nitrobenzoic acid (DTNB). The reduced DTNB acquires a yellow coloration, which can be spectrophotometrically determined. The GSSG generated is reduced by the action of the enzyme glutathione reductase in the presence of NADPH. The GSH formed oxidizes again, generating a continuous cycle, in which the reduction speed of the DTNB (and its resulting increase in the absorbance at 412 nm) is proportional to the total amount of glutathione (GSH+GSSG). To proceed with the measurement of the total glutathione content, the cytosolic extracts obtained from the stomachs of the animals of the ulcer induced by ethanol trials were used. […] The plate was placed on the spectrophotometer reader, where it was maintained for 5 minutes in a temperature of 30° C. After this period, 15 μL of glutathione reductase was added and the increase on the absorbance was registered at 412 nm. […]

As to `Cc1c(OCC(F)(F)F)ccnc1C[S+]([O-])c1nc2ccccc2[nH]1` (centres unmarked) [Lansoprazole, lansoprazole], in data set [1], the “GPx (nmol/min/mg of protein)” value is recorded as 33.54 ± 2.12 nmol/min/mg of protein. Moreover, the “Evolution of the corporal weight (FIG. 5)” value in data set [2] (sub-chronic treatment, 14 days) is “no significative statistical difference”. Moreover, the “Relation between the weight of the organs and the animals: lungs (FIG. 3)” value in data set [2] (treated for 7 days) is listed as “reduction of this relation in the lungs”. Further, the “MPO (U/mg of protein)” value is reported as 0.6 0.04* U/mg of protein in data set [3], 110.50 ± 33.43 U/mg of protein in [5] (7 consecutive days) and 98.05 ± 15.99 U/mg of protein in data set [5] (14 consecutive days). The “Ulcerogenic injury area (FIG. 6)” value in data set [4] (7 consecutive days, oral, extract 300 mg/kg, lansoprazole 30 mg/kg) was “reduction of the injury area”. The “Evolution of the healing process, recovery of the gastric mucous (FIG. 8)” value in data set [4] (during 14 days of oral treatment) was “acceleration”. In data set [6], the “pH of the gastric acid secretion” value is on record as 5.41 0.04***. Besides, in data set [7], the “GR (nmol/min/mg of protein)” value is 10.53 ± 0.42 nmol/min/mg of protein. Further, in data set [8], the “Photomicrographs of stomachs (FIG. 11)” value is “speeded up the healing of the gastric mucous”. The “GSH (nmol/mg of protein)” value in [9] is reported as 13.45 ± 2.25 nmol/mg of protein.

Consider `CN/C(=N/CCSCc1nc[nH]c1C)NC#N` [Cimetidine, cimetidine], for which, in [6], the “Volume of gastric acid secretion (mL)” value was 0.31 0.03** mL and the “pH of the gastric acid secretion” value is reported as 5.39 0.11***.
